Several values for one entry are separate records, joined by “and”; a condition that tells them apart may be missing. Equal entries are not always repeated.
Experiments:
[1] = test system: HL-60 cells; assay: Cell cycle analysis by flow cytometry (propidium iodide); type: cell-based, human; conditions: for cell cycle, G1, mean / cell cycle, G2/M, mean / cell cycle, S, mean: mean of n=2; for cell cycle distribution, G1 / cell cycle distribution, G2 / cell cycle distribution, G2/M: HL-60, 20 h, mean ± SD, n = 2
Procedure: The next stage examined the effects of the selected compounds on cell cycle progression in HL-60 leukemia cells. […] One million HL-60 (subline CCL 240; cell type: promyeloblast) cells in 3 mL of RPMI 1640 supplemented with 20% FBS were seeded on 6-well plate. […] Fixed cells were stored in −20 °C for 2–3 days. Before analysis, cells were centrifuged (10 min, 1500 rpm, 4 °C) and washed twice with cold PBS. After the second wash, the cells were suspended in 1mL of PBS containing 100 μg of RNase A and incubated in 37 °C for 10 min. Next, 5 μL of solution of propidium iodide (1 mg/mL) was added to each sample and incubated in dark for 30 min at RT. Stained cells were analyzed by flow cytometry (FACS Calibur, BD Biosciences, San Jose, CA, USA). Data from 10,000 gated cells were collected using CellQuestPro software (Ver 6.0, Becton Dickinson) and cell cycle analysis was performed with ModFit LT software (Ver 3.2, Verity Software House, Topsham, ME, USA).

[2] = Lipophilicity (logP) by RP-TLC; conditions: RP-18 F254S TLC plates
Text: Lipophilicity is one of the most important physicochemical properties in pharmaceutical research. It can be considered a key determinant of the pharmacokinetic properties of a drug. It is commonly measured by the partition coefficient between water and n-octanol, being expressed as logP [14]. […] Knowledge of the partition coefficient is valuable: it is frequently used in structure–activity relationship (SAR) and quantitative structure–activity relationship (QSAR) studies. The experimental lipophilicity of the synthesized compounds, viz. benzylideneflavanones, benzylidenechromanones and spiropyrazolines, was determined using RP-TLC. […] It is important to examine the relationship between structure of the compound and its lipophilicity and cytotoxicity.
The RP-TLC experiments were performed on TLC plates (5 × 10 cm) RP-18 F254S (Merck, Darmstadt, Germany). The synthesized compounds were dissolved in N,N-dimethylformamide DMF (2 mg/mL). […] A DMF-water solvent system was used as mobile phase. […] All experiments were performed at room temperature. The logP parameter was calculated using the equation from the calibration curve.

[3] = test system: HL-60 cells; parameters: method as in PMID 30513785; conditions: MTT; cited from earlier work
[4] = test system: WM-115 cells; parameters: method as in PMID 30513785; conditions: MTT; cited from earlier work
[5] = test system: NALM-6 cells; parameters: method as in PMID 30513785; conditions: MTT; cited from earlier work
[6] = test system: plasmid DNA (pcDNAHisC); assay: Digestion of plasmid DNA with BamHI restriction nuclease (DNA-cleavage protection); type: biochemical; conditions: 10 µM, overnight 37 °C, then BamHI 3 h, agarose gel
Procedure: This cytotoxicity was tested with regard to its effect on the cell cycle and the ability to modify DNA. In addition to the compounds shown in Table 4, two highly-cytotoxic compounds (11 and 12) were also tested. Their structure and biological activity were described in a previous article. […] To test this hypothesis, plasmid DNA was incubated with the test compounds and subsequently digested with BamH1 endonuclease. […] This conclusion is supported by the presence of the circular form of plasmid DNA after digestion with BamH1.
First, 0.5 µg of plasmid DNA (pcDNAHisC, total length 5.5 kbp) containing a unique BamHI restriction site was dissolved in a 1x BamHI reaction buffer and incubated overnight at 37 °C with the test compounds or daunorubicin, which was used as a positive control. The concentration of the test compounds and daunorubicin in the samples was 10 µM. The final concentration of DMSO in all samples was 10%. In the next step, the reaction mixtures were digested with BamHI restriction endonuclease (2 U/µL) for 3 h at 37 °C. Total reaction volume was 10 µL. Products of the reaction were separated in the 1% agarose gel in TBE buffer. The gel was stained with ethidium bromide and DNA fragments were visualized under a UV lamp (GBox, Syngene, Frederick, MD, USA).

[7] = Figure S3, HL-60, 0.5 × IC50 (µM: quercetin 29, 1 1.5, 7 18, 10 4.7, 11 4.5, 12 6)
[8] = Figure S3, HL-60, 0.5 × IC50, each of two repetitions
[9] = Figure S3, HL-60, 1 × IC50 (µM: quercetin 58, 1 3, 7 35, 10 9.4, 11 9, 12 12)
[10] = Figure S3, HL-60, 1 × IC50, each of two repetitions
[11] = 0.5 × IC50 (µM: quercetin 29, 2 1.5, 7 18, 12 6, 11 4.5, 10 4.7)
[12] = 1 × IC50 (µM: quercetin 58, 2 3, 7 35, 12 12, 11 9, 10 9.4)

## CCN(CC)c1ccc(/C=C2\COc3ccccc3C2=O)cc1 [Compound 12, (E)-3-(4-N,N-diethylaminobenzylidene)chroman-4-one]
[1]; [7]
  cell cycle, G1, mean: 19,26%
  cell cycle, G2/M, mean: 52,38%
  cell cycle, S, mean: 28,37%
[1]; [8]
  cell cycle, G1, single repetitions: 17,44% and 21,08%
  cell cycle, G2/M, single repetitions: 56,79% and 47,96%
  cell cycle, S, single repetitions: 22,13% and 34,60%
[1]; Figure S3, HL-60, 1 × IC50 (µM in parenthesis: quercetin 58, 1 3, 7 35, 10 9.4, 11 9, 12 12)
  cell cycle, G1, mean: 19,53%
[1]; [9]
  cell cycle, G2/M, mean: 52,44%
  cell cycle, S, mean: 28,03%
[1]; [10]
  cell cycle, G2/M, single repetitions: 44,70% and 60,18%
  cell cycle, S, single repetitions: 27,06% and 29,00%
[1]; [11]
  cell cycle distribution, G1: 19.3 ± 2.6%
  cell cycle distribution, G2: 28.4 ± 8.8%
  cell cycle distribution, G2/M: 52.4 ± 6.2%
[1]; [12]
  cell cycle distribution, G1: 19.5 ± 12.3%
  cell cycle distribution, G2: 28.0 ± 1.4%
  cell cycle distribution, G2/M: 52.4 ± 10.9%
[1]; HL-60, concentrations of IC50 and 0.5 × IC50
  cells arrested in G2/M phase: 50–60%
[2]
  chromatographic logP: 3.43
[3]
  IC50: 11.8 ± 1.97 µM
[4]
  IC50: 18.1 ± 3.14 µM
[5]
  IC50: 8.69 ± 0.4 µM

## COc1cccc2c1C(=O)c1c(O)c3c(c(O)c1C2=O)C[C@@](O)(C(C)=O)C[C@@H]3O[C@H]1C[C@H](N)[C@H](O)[C@H](C)O1 [daunorubicin]
[6]
  inhibition of BamHI digestion of plasmid DNA (in words): prevented linearization of DNA
